IC50 data for five compounds are collected here from ChEMBL document CHEMBL3407334, “Synthesis of novel inhibitors of α-glucosidase based on the benzothiazole skeleton containing benzohydrazide moiety and their molecular docking studies” (Eur J Med Chem, 2015).

The assay deals with Maltase-glucoamylase (Homo sapiens, UniProt O43451). As to the kind of experiment: Inhibition of alpha-glucosidase (unknown origin) using pNPG substrate incubated for 15 mins by microplate reader based method.

Each structure is given as a SMILES string.

Chain of Maltase-glucoamylase (O43451 whole entry): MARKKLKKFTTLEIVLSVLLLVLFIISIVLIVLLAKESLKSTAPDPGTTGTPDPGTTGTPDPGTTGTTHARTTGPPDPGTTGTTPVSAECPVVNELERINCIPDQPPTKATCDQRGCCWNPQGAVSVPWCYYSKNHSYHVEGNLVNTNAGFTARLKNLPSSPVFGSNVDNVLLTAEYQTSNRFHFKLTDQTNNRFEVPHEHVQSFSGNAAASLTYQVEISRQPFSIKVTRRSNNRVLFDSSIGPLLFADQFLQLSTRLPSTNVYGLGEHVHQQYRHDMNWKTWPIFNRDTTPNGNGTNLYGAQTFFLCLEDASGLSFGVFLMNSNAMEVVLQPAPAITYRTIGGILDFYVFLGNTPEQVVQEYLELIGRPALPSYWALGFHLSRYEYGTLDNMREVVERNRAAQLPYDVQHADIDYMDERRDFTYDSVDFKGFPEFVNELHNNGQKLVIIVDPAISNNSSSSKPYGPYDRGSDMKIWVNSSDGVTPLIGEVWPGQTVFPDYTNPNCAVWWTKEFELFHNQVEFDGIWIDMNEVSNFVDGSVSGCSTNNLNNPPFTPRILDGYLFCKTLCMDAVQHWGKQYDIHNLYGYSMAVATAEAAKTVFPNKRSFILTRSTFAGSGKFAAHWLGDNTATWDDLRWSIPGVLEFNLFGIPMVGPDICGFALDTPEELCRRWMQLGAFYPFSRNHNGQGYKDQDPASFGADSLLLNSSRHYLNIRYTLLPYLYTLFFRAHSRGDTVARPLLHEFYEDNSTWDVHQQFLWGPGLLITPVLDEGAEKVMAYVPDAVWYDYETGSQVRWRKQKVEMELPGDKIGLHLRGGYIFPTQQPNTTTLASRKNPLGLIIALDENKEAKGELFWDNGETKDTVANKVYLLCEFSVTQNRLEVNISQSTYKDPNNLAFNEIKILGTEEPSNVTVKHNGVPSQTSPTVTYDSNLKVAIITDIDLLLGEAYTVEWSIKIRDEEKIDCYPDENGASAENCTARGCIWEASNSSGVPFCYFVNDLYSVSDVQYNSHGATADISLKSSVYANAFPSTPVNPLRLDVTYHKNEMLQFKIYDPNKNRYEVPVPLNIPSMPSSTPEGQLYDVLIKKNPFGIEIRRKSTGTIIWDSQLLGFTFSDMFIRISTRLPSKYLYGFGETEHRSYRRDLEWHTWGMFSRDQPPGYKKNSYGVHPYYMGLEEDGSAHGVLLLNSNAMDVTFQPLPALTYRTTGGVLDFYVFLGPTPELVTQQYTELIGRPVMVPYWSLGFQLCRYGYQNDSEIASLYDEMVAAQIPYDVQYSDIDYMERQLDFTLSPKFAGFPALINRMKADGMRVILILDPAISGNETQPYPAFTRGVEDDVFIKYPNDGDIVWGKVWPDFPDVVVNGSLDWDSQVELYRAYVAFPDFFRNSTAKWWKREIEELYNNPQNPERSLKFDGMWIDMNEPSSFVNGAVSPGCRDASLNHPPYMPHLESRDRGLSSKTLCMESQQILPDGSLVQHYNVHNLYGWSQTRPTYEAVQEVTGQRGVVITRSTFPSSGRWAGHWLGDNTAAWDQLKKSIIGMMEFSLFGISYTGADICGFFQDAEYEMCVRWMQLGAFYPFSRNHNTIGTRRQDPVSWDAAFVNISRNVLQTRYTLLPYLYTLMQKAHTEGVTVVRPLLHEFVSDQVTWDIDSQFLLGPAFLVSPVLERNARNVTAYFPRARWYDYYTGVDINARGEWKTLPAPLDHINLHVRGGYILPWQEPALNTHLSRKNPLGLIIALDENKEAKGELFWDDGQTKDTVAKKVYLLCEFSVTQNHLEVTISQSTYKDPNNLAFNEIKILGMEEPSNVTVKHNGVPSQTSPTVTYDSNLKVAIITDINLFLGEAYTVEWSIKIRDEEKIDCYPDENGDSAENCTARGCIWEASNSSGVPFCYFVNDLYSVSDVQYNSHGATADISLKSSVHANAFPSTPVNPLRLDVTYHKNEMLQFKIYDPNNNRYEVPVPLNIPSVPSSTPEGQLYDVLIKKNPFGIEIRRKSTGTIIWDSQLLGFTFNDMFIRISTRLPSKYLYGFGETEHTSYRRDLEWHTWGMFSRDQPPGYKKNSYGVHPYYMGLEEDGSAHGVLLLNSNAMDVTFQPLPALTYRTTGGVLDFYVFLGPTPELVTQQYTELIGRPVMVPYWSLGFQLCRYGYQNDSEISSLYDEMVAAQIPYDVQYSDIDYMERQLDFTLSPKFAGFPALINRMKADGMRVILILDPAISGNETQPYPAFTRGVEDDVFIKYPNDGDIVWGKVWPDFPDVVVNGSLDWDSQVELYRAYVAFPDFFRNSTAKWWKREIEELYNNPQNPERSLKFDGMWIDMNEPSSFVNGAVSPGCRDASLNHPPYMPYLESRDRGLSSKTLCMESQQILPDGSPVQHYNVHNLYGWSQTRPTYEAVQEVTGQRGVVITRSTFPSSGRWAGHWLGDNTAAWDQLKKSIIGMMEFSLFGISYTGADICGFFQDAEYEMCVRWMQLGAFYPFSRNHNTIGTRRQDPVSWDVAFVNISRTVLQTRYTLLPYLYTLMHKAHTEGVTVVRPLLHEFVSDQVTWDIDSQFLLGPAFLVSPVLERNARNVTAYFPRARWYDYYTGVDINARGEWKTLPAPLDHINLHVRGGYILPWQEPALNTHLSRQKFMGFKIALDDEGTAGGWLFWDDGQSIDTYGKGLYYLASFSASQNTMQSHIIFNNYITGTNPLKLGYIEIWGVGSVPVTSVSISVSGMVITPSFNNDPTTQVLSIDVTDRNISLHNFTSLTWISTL

For `O=C(N/N=C/c1cccnc1)c1ccc(-c2nc3ccccc3s2)cc1`, the IC50 entry was “Not Active”.

Regarding `COC(=O)c1ccc(/C=N/NC(=O)c2ccc(-c3nc4ccccc4s3)cc2)cc1`, the IC50 result was “Not Active”.

For `COc1ccc(/C=N/NC(=O)c2ccc(-c3nc4ccccc4s3)cc2)cc1OC`, the IC50 entry is given as “Not Active”.

As to `COc1ccc(/C=N/NC(=O)c2ccc(-c3nc4ccccc4s3)cc2)cc1O`, the IC50 result is on record as “Not Active”.

For the compound `O=C(N/N=C/c1ccncc1)c1ccc(-c2nc3ccccc3s2)cc1`, the IC50 result is “Not Active”.
